The values below come from patent publication US9096624B2 (OSI Pharmaceuticals, LLC, priority 2009, dated 2015).

By IC50 is commonly meant the concentration that inhibits the measured activity by half.

Experiment [1] deals with T1, FAK (Homo sapiens, UniProt Q05397). The experiment is described as follows: Cell-based capture ELISA for inhibition of FAK autophosphorylation [pY397] in U87MG cells. For orientation: An ELISA detects its analyte on a solid surface through an enzyme-linked reagent.
In experiment [2] the target is T1, FAK. The experiment is described as follows: biochemical.
Experiment [3] deals with T1, FAK. As to the kind of experiment: Cell-based capture ELISA for inhibition of FAK autophosphorylation [pY397] in MiaPaCa2 cells. Here is the method: Cell-Based Assays for Inhibition of FAK Autophosphorylation: MiaPaCa2 and U87MG
ELISA kit from Invitrogen (KHO0441).
Reagents Provided in Biosource FAK [pY397]
The cells were then suspended in cell assay medium.

The mark [4] stands for this setting: Mean FAK Cell Mechanistic IC50 + 50% mP U87MG, + 50% mouse plasma.
[5] abbreviates: MIA-PaCa2 cells, + 50% mouse plasma (Table 3), read-out: Mean FAK Cell Mechanistic IC50 + 50% mP MIA-PaCa2.

T1 sequence (Q05397 whole entry): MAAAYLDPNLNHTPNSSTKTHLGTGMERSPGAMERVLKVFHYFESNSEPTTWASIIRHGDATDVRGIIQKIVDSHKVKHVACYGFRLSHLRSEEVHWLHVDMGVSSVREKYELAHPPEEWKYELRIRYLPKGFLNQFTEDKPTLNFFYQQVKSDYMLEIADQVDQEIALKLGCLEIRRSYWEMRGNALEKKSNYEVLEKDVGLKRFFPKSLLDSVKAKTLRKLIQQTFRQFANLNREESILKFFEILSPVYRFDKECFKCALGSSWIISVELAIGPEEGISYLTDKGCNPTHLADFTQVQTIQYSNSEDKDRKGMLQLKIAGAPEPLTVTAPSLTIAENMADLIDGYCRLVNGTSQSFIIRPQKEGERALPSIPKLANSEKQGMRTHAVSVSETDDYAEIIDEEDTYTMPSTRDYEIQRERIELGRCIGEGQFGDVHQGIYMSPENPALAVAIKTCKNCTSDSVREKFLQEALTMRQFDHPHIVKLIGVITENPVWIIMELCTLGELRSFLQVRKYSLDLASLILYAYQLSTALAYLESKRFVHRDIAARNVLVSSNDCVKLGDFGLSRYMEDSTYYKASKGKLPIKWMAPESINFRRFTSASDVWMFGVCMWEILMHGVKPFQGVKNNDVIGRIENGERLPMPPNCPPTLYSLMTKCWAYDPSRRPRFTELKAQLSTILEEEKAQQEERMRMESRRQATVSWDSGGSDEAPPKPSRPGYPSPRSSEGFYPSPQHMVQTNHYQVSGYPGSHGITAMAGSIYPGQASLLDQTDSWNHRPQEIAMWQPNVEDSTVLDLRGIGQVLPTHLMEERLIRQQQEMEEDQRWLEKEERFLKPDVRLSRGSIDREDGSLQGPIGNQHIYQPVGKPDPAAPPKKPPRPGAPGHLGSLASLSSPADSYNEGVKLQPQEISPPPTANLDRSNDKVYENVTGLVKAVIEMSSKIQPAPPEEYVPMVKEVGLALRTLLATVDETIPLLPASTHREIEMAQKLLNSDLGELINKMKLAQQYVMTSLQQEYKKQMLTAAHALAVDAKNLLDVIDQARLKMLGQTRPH

Regarding `CCOP(=O)(Cc1ccc(Nc2ncc(C(F)(F)F)c(Nc3ccccc3C(=O)NC)n2)c(OC)c1)OCC` [Ex. 53, diethyl (3-methoxy-4-{[4-{[2-(methylcarbamoyl)phenyl]amino}-5-(trifluoromethyl)pyrimidin-2-yl]amino}benzyl)phosphonate], the concentration for half-maximal inhibition (IC50) at FAK [1] (U87MG FAK Cell Mech IC50 +hP, + human plasma) was 160 nM; on FAK [1] (U87MG FAK Cell Mech IC50 +mP, + mouse plasma) it was 70 nM; against FAK [2] it was below 1000 nM; on FAK [3] (MIA-PaCa2 cells on fibronectin, 2 h, no plasma, read-out: Mean FAK Cell Mechanistic IC50 MIA-PaCa2) it was below 1000 nM; on FAK [3] (MIA-PaCa2 cells, + 50% human plasma, read-out: Mean FAK Cell Mechanistic IC50 + 50% hP MIA-PaCa2) it was below 1000 nM.

Take `CCOP(=O)(Cc1ccc(Nc2ncc(C(F)(F)F)c(Nc3ccc([C@H]4CC[C@H](O)CC4)cc3C(=O)NC)n2)cc1)OCC` [Example 139, Diethyl (4-{[4-{[4-(trans-4-hydroxycyclohexyl)-2-(methylcarbamoyl)phenyl]amino}-5-(trifluoromethyl)pyrimidin-2-yl]amino}benzyl)phosphonate]: the IC50 at FAK [1] (setting [4]) is 1000 to 10000 nM; at FAK [2] it was below 1000 nM; at FAK [3] (setting [5]) it was below 1000 nM.

As to `CCOP(=O)(Cc1ccc(Nc2ncc(C(F)(F)F)c(Nc3ccc([C@H]4CC[C@H](O)CC4)cc3C(=O)NC)n2)c(OC)c1)OCC` [Example 141, Diethyl (4-{[4-{[4-(trans-4-hydroxycyclohexyl)-2-(methylcarbamoyl)phenyl]amino}-5-(trifluoromethyl)pyrimidin-2-yl]amino}-3-methoxybenzyl)phosphonate], the IC50 at FAK [1] (setting [4]), against FAK [2] and on FAK [3] (setting [5]) was below 1000 nM each time.

Take `CCOP(=O)(Cc1ccc(Nc2ncc(C(F)(F)F)c(Nc3ccccc3C(=O)NC)n2)c(OC)c1F)OCC` [Example 147, Diethyl (2-fluoro-3-methoxy-4-{[4-{[2-(methylcarbamoyl)phenyl]amino}-5-(trifluoromethyl)pyrimidin-2-yl]amino}benzyl)phosphonate]: the IC50 at FAK [1] (setting [4]), against FAK [2] and on FAK [3] (setting [5]) was below 1000 nM throughout.

In the case of `CCOP(=O)(Cc1ccc(Nc2ncc(C(F)(F)F)c(Nc3ccc(-c4cnn(CCCO)c4)c4c3C(=O)N(C)C4)n2)cc1)OCC` [Example 156, Diethyl (4-{[4-({7-[1-(3-hydroxypropyl)-1H-pyrazol-4-yl]-2-methyl-3-oxo-2,3-dihydro-1H-isoindol-4-yl}amino)-5-(trifluoromethyl)pyrimidin-2-yl]amino}benzyl)phosphonate], the IC50 on FAK [1] (setting [4]), at FAK [2] and on FAK [3] (setting [5]) was below 1000 nM each time.

With `CCOP(=O)(Cc1ccc(Nc2ncc(C(F)(F)F)c(Nc3cccc4c3C(=O)N(C)C4C)n2)c(OC)c1)OCC` (stereo not drawn) [Example 158, Diethyl [4-({4-[(1,2-dimethyl-3-oxo-2,3-dihydro-1H-isoindol-4-yl)amino]-5-(trifluoromethyl)pyrimidin-2-yl}amino)-3-methoxybenzyl]phosphonate], the IC50 on FAK [1] (setting [4]), on FAK [2] and on FAK [3] (setting [5]) was below 1000 nM each time.

Turning to `CCCP(=O)(CCC)c1cccc(Nc2ncc(C(F)(F)F)c(Nc3ccc([C@H]4CC[C@H](O)CC4)c4c3C(=O)N(C)C4)n2)c1` [Example 171, 7-{[2-{[3-(Dipropylphosphoryl)phenyl]amino}-5-(trifluoromethyl)pyrimidin-4-yl]amino}-4-(trans-4-hydroxycyclohexyl)-2-methyl-2,3-dihydro-1H-isoindol-1-one], the IC50 on FAK [1] (setting [4]), on FAK [2] and at FAK [3] (setting [5]) was below 1000 nM each time.

Consider `CCOP(=O)(Cc1ccc(Nc2ncc(C(F)(F)F)c(Nc3cccc4[nH]cc(C)c(=O)c34)n2)c(OC)c1)OCC` [Example 204, Diethyl [3-methoxy-4-({4-[(3-methyl-4-oxo-1,4-dihydroquinolin-5-yl)amino]-5-(trifluoromethyl)pyrimidin-2-yl}amino)benzyl]phosphonate], for which the IC50 at FAK [1] (setting [4]), at FAK [2] and on FAK [3] (setting [5]) was below 1000 nM each time.

For the compound `CNC(=O)c1ccccc1Nc1nc(Nc2ccc(CP(C)(=O)OCCOC)cc2OC)ncc1C(F)(F)F` (stereo not drawn) [Example 216, 2-Methoxyethyl (3-methoxy-4-{[4-{[2-(methylcarbamoyl)phenyl]amino}-5-(trifluoromethyl)pyrimidin-2-yl]amino}benzyl)methylphosphinate], the 50% inhibitory concentration (IC50) on FAK [1] (setting [4]), against FAK [2] and on FAK [3] (setting [5]) was below 1000 nM in each case.

For the compound `CCOP(=O)(Cc1ccc(Nc2ncc(C(F)(F)F)c(Nc3cccnc3C(=O)NC)n2)c(OC)c1)OCC` [Example 231, Diethyl (3-methoxy-4-{[4-{[2-(methylcarbamoyl)pyridin-3-yl]amino}-5-(trifluoromethyl)pyrimidin-2-yl]amino}benzyl)phosphonate], the IC50 at FAK [1] (setting [4]), against FAK [2] and on FAK [3] (setting [5]) was below 1000 nM throughout.

Consider `CCOP(=O)(Cc1ccc(Nc2ncc(C(F)(F)F)c(Nc3ccc(C4CCC(N(C)CC)CC4)c4c3C(=O)N(C)C4)n2)c(OC)c1)OCC` (stereo not drawn) [Example 236, Diethyl [4-({4-[(7-{4-[ethyl(methyl)amino]cyclohexyl}-2-methyl-3-oxo-2,3-dihydro-1H-isoindol-4-yl)amino]-5-(trifluoromethyl)pyrimidin-2-yl}amino)-3-methoxybenzyl]phosphonate], for which the 50% inhibitory concentration (IC50) at FAK [1] (setting [4]), on FAK [2] and on FAK [3] (setting [5]) was below 1000 nM in each case.

In the case of `CCOP(=O)(Cc1ccc(Nc2ncc(C(F)(F)F)c(Nc3ccc([C@H]4CC[C@H](O)CC4)c4c3C(=O)N(C)C4)n2)cn1)OCC` [Example 260, Diethyl [(5-{[4-{[7-(trans-4-hydroxycyclohexyl)-2-methyl-3-oxo-2,3-dihydro-1H-isoindol-4-yl]amino}-5-(trifluoromethyl)pyrimidin-2-yl]amino}pyridin-2-yl)methyl]phosphonate], the IC50 on FAK [1] (setting [4]), on FAK [2] and at FAK [3] (setting [5]) was below 1000 nM in each case.

Take `CCOP(=O)(Cc1ccc(Nc2ncc(C(F)(F)F)c(Nc3cccc4c3c(=O)c(C)cn4CP(=O)(OCC)OCC)n2)c(OC)c1)OCC` [Example 303]: the IC50 on FAK [1] (setting [4]) and against FAK [2] was below 1000 nM in each case.

`CCOC(=O)[C@H]1CC[C@H](c2ccc(Nc3nc(Nc4ccc(CP(=O)(OCC)OCC)cc4OC)ncc3C(F)(F)F)c3c(=O)c(C)c[nH]c32)CC1` [Example 304, Ethyl trans-4-(5-{[2-({4-[(diethoxyphosphoryl)methyl]-2-methoxyphenyl}amino)-5-(trifluoromethyl)pyrimidin-4-yl]amino}-3-methyl-4-oxo-1,4-dihydroquinolin-8-yl)cyclohexanecarboxylate]: the IC50 at FAK [1] (setting [4]) and against FAK [2] was below 1000 nM throughout.

`CCOC(=O)[C@H]1CC[C@@H](c2ccc(Nc3nc(Nc4ccc(CP(=O)(OCC)OCC)cc4OC)ncc3C(F)(F)F)c3c(=O)c(C)c[nH]c32)CC1` [Example 305, Ethyl cis-4-(5-{[2-({4-[(diethoxyphosphoryl)methyl]-2-methoxyphenyl}amino)-5-(trifluoromethyl)pyrimidin-4-yl]amino}-3-methyl-4-oxo-1,4-dihydroquinolin-8-yl)cyclohexanecarboxylate]: the IC50 on FAK [1] (setting [4]) and against FAK [2] was below 1000 nM throughout.

Consider `CCOP(=O)(Cc1ccc(Nc2ncc(C(F)(F)F)c(Nc3ccc([C@H]4CC[C@@H](C(=O)O)CC4)c4[nH]cc(C)c(=O)c34)n2)c(OC)c1)OCC` [Example 306, Cis-4-(5-{[2-({4-[(diethoxyphosphoryl)methyl]-2-methoxyphenyl}amino)-5-(trifluoromethyl)pyrimidin-4-yl]amino}-3-methyl-4-oxo-1,4-dihydroquinolin-8-yl)cyclohexanecarboxylic acid], for which the IC50 on FAK [1] (setting [4]) and against FAK [2] was below 1000 nM in each case.

Consider `CCOP(=O)(Cc1ccc(Nc2ncc(C(F)(F)F)c(Nc3ccc([C@H]4CC[C@H](C(=O)O)CC4)c4[nH]cc(C)c(=O)c34)n2)c(OC)c1)OCC` [Example 307, Trans-4-(5-{[2-({4-[(diethoxyphosphoryl)methyl]-2-methoxyphenyl}amino)-5-(trifluoromethyl)pyrimidin-4-yl]amino}-3-methyl-4-oxo-1,4-dihydroquinolin-8-yl)cyclohexanecarboxylic acid], for which the IC50 at FAK [1] (setting [4]) is 1000 to 10000 nM; against FAK [2] it was below 1000 nM.

Regarding `CCOP(=O)(Cc1cnc(Nc2ncc(C(F)(F)F)c(Nc3ccc([C@H]4CC[C@H](O)CC4)c4c3C(=O)N(C)C4)n2)c(OC)c1)OCC` [Example 308, Diethyl [(6-{[4-{[7-(trans-4-hydroxycyclohexyl)-2-methyl-3-oxo-2,3-dihydro-1H-isoindol-4-yl]amino}-5-(trifluoromethyl)pyrimidin-2-yl]amino}-5-methoxypyridin-3-yl)methyl]phosphonate], the IC50 at FAK [1] (setting [4]) was 1000 to 10000 nM; against FAK [2], below 1000 nM.

Take `CCOP(=O)(Cc1ccc(Nc2ncc(C(F)(F)F)c(Nc3ccc([C@H]4CC[C@H](O)CC4)c4c3C(=O)N(C)C4)n2)nc1)OCC` [Example 309, Diethyl [(6-{[4-{[7-(trans-4-hydroxycyclohexyl)-2-methyl-3-oxo-2,3-dihydro-1H-isoindol-4-yl]amino}-5-(trifluoromethyl)pyrimidin-2-yl]amino}pyridin-3-yl)methyl]phosphonate]: the IC50 on FAK [1] (setting [4]), against FAK [2] and on FAK [3] (setting [5]) was below 1000 nM in each case.

Take `CCOP(=O)(Cc1ccc(Nc2ncc(C(F)(F)F)c(Nc3c4c(cc[n+]3[O-])CN(C)C4=O)n2)c(OC)c1)OCC` [Example 310]: the IC50 on FAK [1] (setting [4]) was 1000 to 10000 nM; on FAK [2], below 1000 nM.

Consider `CCOP(=O)(Cc1ccc(Nc2ncc(C(F)(F)F)c(Nc3nccc4c3C(=O)N(C)C4)n2)c(OC)c1)OCC` [Example 311], for which the figures for the IC50 at FAK [1] (setting [4]) and against FAK [2] were 1000 to 10000 nM and below 1000 nM, respectively.
